Results as given in patent publication US5705492A, “3'-O-aminoacyl ARA uridines, method of making, and antiviral activity” (Hoffmann-La Roche Inc., priority 1995, dated 1998).
Counter-ions that a name gives are not always drawn.

Columns and labels:
[1] = molecular target: HSV-2 thymidine kinase (Human herpesvirus 2, UniProt P04407); assay: inhibition of HSV-2 thymidine kinase; assay type: biochemical; details: 3H-thymidine phosphorylation, 37° C., 30 minutes, pH 8; read-out: IC50 against HSV-2 thymidine kinase
Protocol: (§1) In this test procedure, the assay mixture contains 50 mmol Tris HCl, pH 8, 5 mmol magnesium chloride, 5 mmol ATP, 0.3 μmol ^3 H-thymidine (50 Ci/mmol), suitably diluted enzyme preparation and various concentrations of test compounds in a total volume of 100 μl. Assays are incubated at 37° C. for 30 minutes and the reaction is terminated by immersion in a boiling water bath for 2 minutes. 85 μl aliquots from each assay are then dried on to DEAE-cellulose paper discs and the unphosphorylated ^3 H-thymidine is removed by washing in 4 mmol ammonium formate. The radioactivity remaining bound to the discs is then measured by scintillation spectrophotometry. The degree of inhibition at each concentration of test compound is expressed as a percentage of the control reaction (100%) after subtracting a measured blank value which represents the amount of radioactivity bound to the disc from a reaction containing heat-inactivated enzymes. The IC50 value, namely the concentration of test compound which inhibits enzyme activity by 50%, is then calculated.

[2] = molecular target: HSV-1 thymidine kinase (Human herpesvirus 1, UniProt P0DTH5); assay: inhibition of HSV-1 thymidine kinase; assay type: biochemical; details: 3H-thymidine phosphorylation, 37° C., 30 minutes, pH 8; read-out: IC50 against HSV-1 thymidine kinase
Protocol: as §1

HSV-2 thymidine kinase, sequence (P04407 whole entry): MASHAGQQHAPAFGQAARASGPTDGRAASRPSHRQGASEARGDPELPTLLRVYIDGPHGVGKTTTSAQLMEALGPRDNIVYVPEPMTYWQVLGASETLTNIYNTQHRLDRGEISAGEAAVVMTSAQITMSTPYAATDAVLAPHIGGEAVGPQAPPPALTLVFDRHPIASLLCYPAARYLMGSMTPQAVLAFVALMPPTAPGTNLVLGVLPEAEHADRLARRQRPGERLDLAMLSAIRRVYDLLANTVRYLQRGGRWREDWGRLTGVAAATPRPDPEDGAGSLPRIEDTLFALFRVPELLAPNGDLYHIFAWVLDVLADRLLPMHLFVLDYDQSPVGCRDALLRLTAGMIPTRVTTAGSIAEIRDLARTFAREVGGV
HSV-1 thymidine kinase, sequence (P0DTH5 whole entry): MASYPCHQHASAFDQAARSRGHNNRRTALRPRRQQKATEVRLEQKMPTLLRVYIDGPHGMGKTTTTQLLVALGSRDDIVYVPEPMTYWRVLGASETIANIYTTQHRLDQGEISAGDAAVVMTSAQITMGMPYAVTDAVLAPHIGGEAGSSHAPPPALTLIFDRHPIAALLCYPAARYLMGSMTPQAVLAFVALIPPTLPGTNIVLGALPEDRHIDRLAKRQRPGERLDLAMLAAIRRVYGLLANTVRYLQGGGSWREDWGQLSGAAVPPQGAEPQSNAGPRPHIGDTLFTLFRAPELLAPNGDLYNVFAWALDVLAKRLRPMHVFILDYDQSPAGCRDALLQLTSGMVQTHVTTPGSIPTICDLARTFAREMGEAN

IC50 [1]: 1.1 nM | IC50 [2]: 18 nM
Compound: CCc1cn([C@@H]2O[C@H](CNC(=O)[C@H](C)Oc3cc(OC)c(Cl)cc3Cl)[C@@H](OC(=O)[C@@H](N)C(C)C)[C@@H]2F)c(=O)[nH]c1=O [Example 1, 1-[5-[2(S)-(2,4-dichloro-5-methoxyphenoxy)propionamido]-1,5-dideoxy-2-fluoro-3-O-L-valyl-β-D-arabinofuranosyl]-5-ethyluracil hydrochloride]
